Reference: patent US20260217701A1, “SELECTIVE BET INHIBITORS AND USES THEREOF” (Tay Therapeutics Limited, priority 2022, published 2026)
“And” between values parts separate entries of the source, which are not always exact repeats. Equal values may be shown once.

Test system: imiquimod-induced psoriasis
Assay: Imiquimod-induced psoriasis model
Format: in vivo, mice
Conditions: for Body Weight D1: Day 1 (before treatment start on Day 8); for Body Weight D1 / Body Weight D3 / Body Weight D5 / Body Weight D7 / Body Weight D8 / Body Weight D9 / Body Weight D10 / Body Weight D11 / Body Weight D12 / Body Weight D13 / Body Weight D14 / Body Weight D15 / MBWC D1-D8 / MBWC D8-D15 / PASI Scores: individual animals; for Body Weight D3: Day 3 (before treatment start on Day 8); for Body Weight D5: Day 5 (before treatment start on Day 8); for Body Weight D7: Day 7 (before treatment start on Day 8); for Body Weight D8: Day 8 (first day of treatment); for Body Weight D9: Day 9; for Body Weight D10: Day 10; for Body Weight D11: Day 11; for Body Weight D12: Day 12; for Body Weight D13: Day 13; for Body Weight D14: Day 14; for Body Weight D15: Day 15; for MBWC D1-D8: body weight change Day 1 to Day 8 (before treatment); for MBWC D8-D15: body weight change Day 8 to Day 15 (treatment period); for PASI Scores: IMI + Compound A 1 mg/kg
Summary of the method: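 Mice given topical imiquimod (5% cream) daily on depilated backs Days 1–14; Compound A in 5% DMSO/40% PEG-400/55% saline from Day 8, clobetasol topical as reference. Daily PASI (erythema, induration, peeling, each 0–4, summed) Days 8–15; spleen weight, open-field behaviour, serum IL-1B, IL-6, IL-17, TNF-α, IL-22, IL-23 at Day 15.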

[1] = IMI + 1 mg/kg, 1 mg/kg, in g (unit assumed)
[2] = IMI + 3 mg/kg, 3 mg/kg, in g (unit assumed)
[3] = IMI + 10 mg/kg, 10 mg/kg, in g (unit assumed)

## Cn1cc(-c2ccccc2)c(-c2cn(C)c(=O)c3[nH]c(-c4cnn(C(F)(F)F)c4)cc23)cc1=O [Compound A, 6-methyl-4-(1-methyl-2-oxo-5-phenyl-1,2-dihydropyridin-4-yl)-2-(1-(trifluoromethyl)-1H-pyrazol-4-yl)-1,6-dihydro-7H-pyrrolo[2,3-c]pyridin-7-one]
1 mg/kg
  PASI score improvement by day 15: > 80%
3 mg/kg
  PASI score improvement by day 15: > 90%
  symptoms by day 15 (representative images): nearly entirely symptom free
3 mg/kg IP once daily
  PASI-90 (change in PASI score ≥90%) by day 7 of treatment: surpassed PASI-90
10 mg/kg
  PASI score improvement by day 15: > 90%
3 tested doses (1, 3, 10 mg/kg)
  efficacy on the treatment of psoriasis: very good efficacy
D15
  licking scoring: effective in reducing licking scoring
D15, open field
  rearing behavior: restored rearing behavior
[1]
  Body Weight D1: 16.93 and 17.80 and 16.08 and 16.97 and 17.74 and 17.12 and 18.36 and 17.34
  Body Weight D3: 15.40 and 16.02 and 15.09 and 15.92 and 16.29 and 16.59 and 16.98 and 15.19
  Body Weight D5: 15.20 and 16.76 and 15.65 and 16.45 and 16.71 and 17.23 and 17.40 and 15.42
  Body Weight D7: 15.18 and 17.36 and 15.85 and 16.10 and 16.71 and 17.27 and 17.41 and 15.38
  Body Weight D8: 14.60 and 16.99 and 15.82 and 16.44 and 16.60 and 17.49 and 16.66 and 14.75
  Body Weight D9: 14.63 and 17.16 and 15.82 and 16.15 and 16.59 and 17.04 and 16.41 and 15.55
  Body Weight D10: 14.70 and 16.93 and 15.61 and 15.89 and 16.21 and 16.73 and 16.12 and 15.11
  Body Weight D11: 14.84 and 17.22 and 15.81 and 15.74 and 16.25 and 16.90 and 16.89 and 15.58
  Body Weight D13: 15.05 and 17.40 and 16.20 and 15.94 and 16.75 and 17.05 and 16.69 and 15.46
  Body Weight D14: 15.56 and 17.50 and 16.49 and 16.50 and 17.20 and 17.24 and 16.86 and 16.35
  Body Weight D15: 15.74 and 17.76 and 16.69 and 17.05 and 17.07 and 17.34 and 17.23 and 16.41
IMI + 1 mg/kg, 1 mg/kg
  Body Weight D12: 14.87 and 16.99 (2×) and 15.46 and 15.54 and 17.30 and 17.06 and 15.66
  MBWC D1-D8: −2.33 and −0.81 and −0.26 and −0.53 and −1.14 and 0.37 and −1.70 and −2.59
  MBWC D8-D15: 1.14 and 0.77 and 0.87 and 0.61 and 0.47 and −0.15 and 0.57 and 1.66
[2]
  Body Weight D1: 17.31 and 16.98 and 19.05 and 16.34 and 18.16 and 17.71 and 15.90 and 17.04
  Body Weight D3: 15.94 and 14.69 and 16.63 and 15.29 and 15.93 and 15.05 and 14.65 and 15.53
  Body Weight D5: 16.84 and 15.15 and 16.74 and 15.65 and 17.11 and 16.06 and 16.09 and 15.35
  Body Weight D7: 16.64 and 14.71 and 16.54 and 14.84 and 17.16 and 15.73 and 15.75 and 15.45
  Body Weight D9: 16.53 and 14.49 and 16.98 and 15.40 and 16.26 and 15.22 and 15.49 and 14.89
  Body Weight D10: 16.64 and 14.53 and 17.40 and 15.71 and 16.02 and 15.31 and 14.80 and 14.76
  Body Weight D11: 17.05 and 14.95 and 17.25 and 15.60 and 16.07 and 15.67 and 15.43 and 15.33
  Body Weight D12: 17.56 and 15.38 and 17.88 and 15.18 and 16.82 and 16.07 and 15.80 and 15.88
  Body Weight D13: 17.68 and 16.03 and 18.03 and 15.39 and 16.24 and 16.09 and 15.63 and 15.61
  Body Weight D14: 17.80 and 16.01 and 17.97 and 15.32 and 16.91 and 16.84 and 15.90 and 15.97
IMI + 3 mg/kg, 3 mg/kg
  Body Weight D8: 16.59 and 14.84 and 16.76 and 15.51 (2×) and 15.95 and 15.14 and 15.67
  Body Weight D15: 18.44 (2×) and 16.47 (2×) and 15.82 and 16.95 and 16.91 and 16.13
  MBWC D1-D8: −0.72 and −2.14 and −2.29 and −0.83 and −2.21 and −2.57 and −0.39 and −1.37
  MBWC D8-D15: 1.85 and 1.63 and 1.68 and 0.31 and 1.00 and 1.77 and 0.62 and 0.80
[3]
  Body Weight D1: 17.49 and 17.30 and 19.10 and 19.20 and 19.68 and 17.68 and 16.28 and 17.45
  Body Weight D3: 15.01 and 14.91 and 17.43 and 18.70 and 15.42 and 17.04 and 13.99 and 14.57
  Body Weight D7: 16.33 and 15.77 and 17.25 and 18.62 and 16.18 and 17.36 and 15.18 and 14.93
  Body Weight D8: 16.07 and 15.40 and 17.12 and 18.84 and 15.35 and 16.21 and 14.88 and 14.68
  Body Weight D9: 15.69 and 15.96 and 16.63 and 19.27 and 15.91 and 16.41 and 14.96 and 14.71
  Body Weight D10: 15.53 and 15.84 and 16.68 and 18.91 and 16.27 and 16.73 and 15.10 and 14.49
  Body Weight D12: 15.83 and 15.88 and 17.03 and 19.25 and 17.13 and 17.19 and 16.27 and 15.58
  Body Weight D13: 17.35 and 16.03 and 17.55 and 19.51 and 16.98 and 17.10 and 16.02 and 15.65
  Body Weight D14: 16.58 and 16.42 and 17.59 and 19.36 and 17.68 and 17.84 and 16.59 and 15.62
  Body Weight D15: 16.60 and 16.43 and 18.35 and 19.39 and 17.81 and 18.26 and 16.77 and 15.96
IMI + 10 mg/kg, 10 mg/kg
  Body Weight D5: 15.12 (2×) and 14.82 and 17.32 and 19.02 and 15.82 and 16.99 and 15.18
  Body Weight D11: 15.74 and 15.58 (2×) and 16.84 and 19.15 and 16.81 and 17.05 and 15.32
  MBWC D1-D8: −1.42 and −1.90 and −1.98 and −0.36 and −4.33 and −1.47 and −1.40 and −2.77
  MBWC D8-D15: 0.53 and 1.03 and 1.23 and 0.55 and 2.46 and 2.05 and 1.89 and 1.28
D8 (day treatment started), 1 mg/kg
  PASI Scores: 8 (4×) and 6 (2×) and 7 (2×)
D9, 1 mg/kg
  PASI Scores: 7 (3×) and 6 (3×) and 9 and 8
D10, 1 mg/kg
  PASI Scores: 7 and 6 (3×) and 5 (3×) and 8
D11, 1 mg/kg
  PASI Scores: 6 (3×) and 4 (2×) and 5 and 8 and 7
